Assay results published in patent US12628822B2, “Plant pathogen defence elicitors” (UNIVERSITÉ LIBRE DE BRUXELLES, priority 2020, dated 2026).

Test system: Arabidopsis transcriptome
Assay: cDNA microarray analysis of early transcriptomic changes in Arabidopsis seedlings
Format: in vivo, Arabidopsis thaliana
Experimental: Arabidopsis thaliana Columbia (Col-0) was the accession used for all the experiments. Seeds were surface sterilised by subsequent treatment with 50% v/v Et-OH and 3% bleach solution in agitation for 5 and 10 min, respectively. Seeds were then washed three times with distilled water and stratified for 3 days at 4° C. in the dark. For qPCR analysis and microarray experiments, seeds were sown on square petri dishes ([…]) containing half strength Murashige and Skoog (MS) salt, 2.5 mM MES, 1% w/v sucrose and 0.8% w/v plant agar. The experiments were performed using 14-day old seedlings grown vertically in a controlled growth cabinet with short day conditions ( 8/16 h light/dark; 100 μmol photons m^−2 s^−1) at 22±0.5° C. Treatments were performed by applying 40-50 μl of fresh-prepared and filtered solution per seedling.
For RNA extraction, 14-day old leaves from ten independent plants were collected at the indicated time point after treatments, pooled and frozen in liquid nitrogen. Total RNA was extracted from 100 mg of ground-frozen samples using the Maxwell® LEV Plant RNA Kit (Promega, Madison, WI, USA) and the RNA integrity was determined through NanoDrop 2000 UV-Vis Spectrophotometer (Thermo Scientific, Loughborough, UK). First-strand cDNA was synthesized by using SOLIScript® RT cDNA synthesis MIX (Solis Biodyne, Tartu, Estonia) and qPCRs were performed using SYBR® Selected MasterMix 2× (Applied Biosystems, Thermo Fisher Scientific, Waltham, USA), following the manufacturers' protocols. The cycling conditions consisted of an initial 7 min at 95° C., followed by 40 two-step cycles at 95° C. for 5 s and at 60° C. for 30 s. Melting curve analysis was performed after cycle completion to validate amplicon identity. Relative expression levels were calculated following the standard curve-based method (Larionov et al. A standard curve based method for relative real time PCR data processing, BMC Bioinformatics. 2005, vol. 6, 1) by using ACTIN as reference. Gene-specific primers used in this work are indicated below.
RNA sample preparation for microarray hybridization was carried out as described in the Applied Biosystems™ GeneChip™ Whole Transcript (WT) PLUS Reagent Kit User Guide (Thermo Fisher Scientific, Waltham, MA, USA). Briefly, 200 ng of total RNA was used to generate double-stranded cDNA. Twelve μg of subsequently synthesized cRNA were purified and reverse transcribed into single-stranded (ss)cDNA, where unnatural dUTP residues were incorporated. Purified and labelled sscDNAs were hybridised to Arabidopsis Gene 1.0 ST arrays (Affymetrix, Santa Clara, CA, USA) and the fluorescent signals were measured with an Applied Biosystems™ GeneChip Scanner 3000 7 G System. Sample processing was performed at a Genomics Core Facility, “KFB—Center of Excellence for Fluorescent Bioanalytics” (Regensburg, Germany).
Normalised probe set signals in log2 scale were calculated by using the RMA algorithm. Average linkage hierarchical clusters of differentially expressed genes were generated by using Cluster 3.0 and visualized by java TreeView.
In Arabidopsis, the DAMPs-dependent elicitation of PTI is known to be accompanied by a deep immune gene transcriptional reprogramming. […] The transcriptomic analysis was carried out by using Arabidopsis 1.0 ST microarray chip (Affymetrix, Santa Clara, CA, USA) and Differentially Expressed Genes (DEGs) were selected using two criteria: log2 expression ratios ≥1.5-fold or […] and Student's t-test p-value≤0.05.

[1] = 100 μM, 1 h, Col-0 plants, vs control

OC[C@H]1O[C@@H](O[C@H]2[C@H](O)[C@@H](O)[C@H](O)O[C@@H]2CO)[C@H](O)[C@@H](O)[C@@H]1O [Cellobiose, β-D-glucopyranosyl(1→4)D-glucopyranose]
AT3G46280 protein kinase-like protein gene expression [1]: 4.51 fold change | AT3G51910 heat stress transcription factor A-7a gene expression [1]: 1.35 fold change | AT3G54420 chitinase class IV gene expression [1]: 1.74 fold change | AT4G01750 rhamnogalacturonan xylosyltransferase 2 gene expression [1]: 2.59 fold change | AT4G11890 receptor-like cytosolic kinase ARCK1 gene expression [1]: 1.75 fold change | AT4G12400 carboxylate clamp-tetratricopeptide repeat protein gene expression [1]: 3.23 fold change | AT4G15233 ABC transporter G family member 42 gene expression [1]: 1.66 fold change | AT4G21120 amino acid transporter 1 gene expression [1]: 1.07 fold change | AT4G22470 protease inhibitor/seed storage/lipid transfer protein (LTP) family protein gene expression [1]: 1.77 fold change | AT4G22710 cytochrome P450, family 706, subfamily A, polypeptide 2 gene expression [1]: 1.15 fold change | AT4G23220 cysteine-rich receptor-like protein kinase 14 gene expression [1]: 1.69 fold change | AT4G23280 putative cysteine-rich receptor-like protein kinase 20 gene expression [1]: 1.14 fold change | AT4G23570 phosphatase SGT1a gene expression [1]: 2.22 fold change | AT4G25110 metacaspase 2 gene expression [1]: 1.74 fold change | AT4G26200 1-aminocyclopropane-1-carboxylate synthase 7 gene expression [1]: 2.14 fold change | AT4G27280 EF-hand, calcium binding motif-containing protein gene expression [1]: 1.33 fold change | AT4G38550 phospholipase like protein (PEARLI 4) family gene expression [1]: 1.60 fold change | AT5G05300 hypothetical protein gene expression [1]: 1.78 fold change | AT5G10695 hypothetical protein gene expression [1]: 2.27 fold change | AT5G14470 GHMP kinase family protein gene expression [1]: 1.21 fold change | AT5G15870 glycosyl hydrolase family 81 protein gene expression [1]: 1.14 fold change | AT5G19230 GPI-anchored glycoprotein membrane precursor gene expression [1]: 1.24 fold change | AT5G35320 hypothetical protein gene expression [1]: 1.02 fold change | AT5G37600 glutamine synthetase 1; 1 gene expression [1]: 1.56 fold change | AT5G37670 heat shock protein 15.7 gene expression [1]: 1.04 fold change | AT5G39020 putative receptor-like protein kinase gene expression [1]: 1.02 fold change | AT5G39580 peroxidase 62 gene expression [1]: 3.82 fold change | AT5G44070 glutathione gamma-glutamylcysteinyltransferase 1 gene expression [1]: 1.44 fold change | AT5G44585 hypothetical protein gene expression [1]: 2.20 fold change | AT5G44910 Toll-Interleukin-Resistance domain-containing protein gene expression [1]: 1.10 fold change | AT5G46050 peptide transporter 3 gene expression [1]: 1.74 fold change | AT5G48530 hypothetical protein gene expression [1]: 2.07 fold change | AT5G48540 receptor-like protein kinase-related family protein gene expression [1]: 1.85 fold change | AT5G48570 peptidyl-prolyl cis-trans isomerase FKBP65 gene expression [1]: 3.39 fold change | AT5G51440 heat shock protein 23.5 gene expression [1]: 1.36 fold change | AT5G52640 heat shock protein 90.1 gene expression [1]: 3.70 fold change | AT5G57220 cytochrome P450, family 81, subfamily F, polypeptide 2 gene expression [1]: 1.07 fold change | AT5G62020 heat stress transcription factor B-2a gene expression [1]: 1.00 fold change | AT5G64120 peroxidase 71 gene expression [1]: 1.42 fold change | AT5G67450 zinc-finger protein 1 gene expression [1]: 1.44 fold change | MYB51 (AT1G18570) Expression (100 μM, 1 h, microarray): 1.46 Fold change (treatment/CTR) | MYB73 (AT4G37260) Expression (100 μM, 1 h, microarray): 1.06 Fold change (treatment/CTR) | NAC047 (AT3G04070) Expression (100 μM, 1 h, microarray): 1.81 Fold change (treatment/CTR) | NAC055 (AT3G15500) Expression (100 μM, 1 h, microarray): 1.20 Fold change (treatment/CTR) | NAC057 (AT3G17730) Expression (100 μM, 1 h, microarray): 1.40 Fold change (treatment/CTR) | NAC058 (AT3G18400) Expression (100 μM, 1 h, microarray): 1.41 Fold change (treatment/CTR) | NAC078 (AT5G04410) Expression (100 μM, 1 h, microarray): 1.31 Fold change (treatment/CTR) | Target of MYB protein 1 (AT1G76970) Expression (100 μM, 1 h, microarray): 1.64 Fold change (treatment/CTR) | WRKY11 (AT4G31550) Expression (100 μM, 1 h, microarray): 1.95 Fold change (treatment/CTR) | WRKY15 (AT2G23320) Expression (100 μM, 1 h, microarray): −1.06 Fold change (treatment/CTR) | WRKY18 (AT4G31800) Expression (100 μM, 1 h, microarray): 4.02 Fold change (treatment/CTR) | WRKY22 (AT4G01250) Expression (100 μM, 1 h, microarray): 2.34 Fold change (treatment/CTR) | WRKY30 (AT5G24110) Expression (100 μM, 1 h, microarray): 1.30 Fold change (treatment/CTR) | WRKY33 (AT2G38470) Expression (100 μM, 1 h, microarray): 1.33 Fold change (treatment/CTR) | WRKY40 (AT1G80840) Expression (100 μM, 1 h, microarray): −1.05 Fold change (treatment/CTR) | WRKY61 (AT1G18860) Expression (100 μM, 1 h, microarray): −1.05 Fold change (treatment/CTR) | WRKY72 (AT5G15130) Expression (100 μM, 1 h, microarray): 1.41 Fold change (treatment/CTR) | LOX4 (AT1G72520) gene expression, Microarray (vs CTR): 1.68 fold change | MPK3 (AT3G45640) gene expression, Microarray (vs CTR): 1.22 fold change | MPK6 (AT2G43790) gene expression, Microarray (vs CTR): −1.06 fold change | PAD3 (AT3G26830) gene expression, Microarray (vs CTR): −1.04 fold change | PEN3 (AT1G59870) gene expression, Microarray (vs CTR): 1.55 fold change | PR1 (AT2G14610) gene expression, Microarray (vs CTR): 1.91 fold change | WRKY18 (AT4G31800) gene expression, Microarray (vs CTR): 4.02 fold change | WRKY22 (AT4G01250) gene expression, Microarray (vs CTR): 2.34 fold change | WRKY33 (AT2G38470) gene expression, Microarray (vs CTR): 1.33 fold change | IGMT2 (At1G21120) gene expression, Microarray (vs mock): −1.14 fold change
